Test results reported in ChEMBL document CHEMBL1201862, “PubChem BioAssay data set” (2004).
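A five-concentration, 48-hour dose response in 96-well plates underlies each endpoint, interpolated linearly between surrounding concentrations. GI50 = concentration required for 50% inhibition of growth.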 Calls of active or inactive are those of the source. Cut-off read from the data, not from the text of the source: active = GI50 up to about 1.1 µM and inactive = higher.

Assays:
Assay in all cases: NCI tumour cell line growth inhibition, 48 h
HCT-15 = tested on: HCT-15
MDA-N = tested on: MDA-N
SNB-19 = tested on: SNB-19
K562 = tested on: K562
IGROV-1 = tested on: IGROV-1
CAKI-1 = tested on: CAKI-1
HL-60 = tested on: HL-60
SN12C = tested on: SN12C
NCI-H23 = tested on: NCI-H23
KM12 = tested on: KM12
M14 = tested on: M14
PC-3 = tested on: PC-3
MDA-MB-435 = tested on: MDA-MB-435
SF-268 = tested on: SF-268
MCF7 = tested on: MCF7
T47D = tested on: T47D
SK-OV-3 = tested on: SK-OV-3
Malme-3M = tested on: Malme-3M
HCT-116 = tested on: HCT-116
HOP-62 = tested on: HOP-62

CCOC(=O)C(NC(C)=O)(Nc1ccc(S(N)(=O)=O)cc1)C(F)(F)F (stereo not given)
GI50 (HCT-15): > 100 µM | GI50 (MDA-N): > 100 µM (inactive) | GI50 (SNB-19): > 100 µM (inactive) | GI50 (K562): > 100 µM (inactive) | GI50 (IGROV-1): > 100 µM (inactive) | GI50 (CAKI-1): > 100 µM (inactive) | GI50 (HL-60): > 100 µM (inactive) | GI50 (SN12C): > 100 µM (inactive) | GI50 (NCI-H23): > 100 µM (inactive) | GI50 (KM12): 3.58 µM (inactive) | GI50 (M14): > 100 µM (inactive) | GI50 (PC-3): > 100 µM (inactive) | GI50 (MDA-MB-435): > 100 µM (inactive) | GI50 (SF-268): > 100 µM (inactive) | GI50 (MCF7): > 100 µM (inactive) | GI50 (T47D): > 100 µM (inactive) | GI50 (SK-OV-3): > 100 µM (inactive) | GI50 (Malme-3M): > 100 µM (inactive) | GI50 (HCT-116): > 100 µM (inactive) | GI50 (HOP-62): > 100 µM (inactive)

CCCCCCCCCCCCCCCCOCC(Cl)COP(=O)(O)OP(=O)(O)OCC1OC(n2cnc3c(N)ncnc32)C(O)C1O (stereo not given)
GI50 (HCT-15): > 100 µM | GI50 (MDA-N): 61.8 µM (inactive) | GI50 (SNB-19): > 100 µM (inactive) | GI50 (K562): > 100 µM (inactive) | GI50 (IGROV-1): > 100 µM (inactive) | GI50 (CAKI-1): > 100 µM (inactive) | GI50 (HL-60): > 100 µM (inactive) | GI50 (SN12C): > 100 µM (inactive) | GI50 (NCI-H23): > 100 µM (inactive) | GI50 (KM12): 86.9 µM (inactive) | GI50 (M14): 83.6 µM (inactive) | GI50 (PC-3): 29.9 µM (inactive) | GI50 (MDA-MB-435): 54.7 µM (inactive) | GI50 (SF-268): > 100 µM (inactive) | GI50 (MCF7): > 100 µM (inactive) | GI50 (T47D): 84.5 µM (inactive) | GI50 (SK-OV-3): 68.5 µM (inactive) | GI50 (Malme-3M): > 100 µM (inactive) | GI50 (HCT-116): 38.1 µM (inactive) | GI50 (HOP-62): > 100 µM (inactive)

CC(C)OC(=O)OCSc1ccccc1/N=C/c1cccc([N+](=O)[O-])c1
GI50 (HCT-15): > 10 µM | GI50 (MDA-N): > 10 µM (inactive) | GI50 (SNB-19): > 10 µM (inactive) | GI50 (K562): > 10 µM (inactive) | GI50 (IGROV-1): > 10 µM (inactive) | GI50 (CAKI-1): > 10 µM (inactive) | GI50 (HL-60): > 10 µM (inactive) | GI50 (SN12C): > 10 µM (inactive) | GI50 (NCI-H23): > 10 µM (inactive) | GI50 (KM12): > 10 µM (inactive) | GI50 (M14): > 10 µM (inactive) | GI50 (PC-3): > 10 µM (inactive) | GI50 (MDA-MB-435): > 10 µM (inactive) | GI50 (SF-268): > 10 µM (inactive) | GI50 (MCF7): > 10 µM (inactive) | GI50 (T47D): > 10 µM (inactive) | GI50 (SK-OV-3): > 10 µM (inactive) | GI50 (Malme-3M): > 10 µM (inactive) | GI50 (HCT-116): > 10 µM (inactive) | GI50 (HOP-62): > 10 µM (inactive)

O=C(CCOS(=O)(=O)CF)N1CCN(C(=O)CCOS(=O)(=O)CF)CC1
GI50 (HCT-15): > 100 µM | GI50 (MDA-N): > 100 µM (inactive) | GI50 (SNB-19): 58.3 µM (inactive) | GI50 (K562): 56.5 µM (inactive) | GI50 (IGROV-1): > 69.5 µM (inactive) | GI50 (CAKI-1): 5.36 µM (inactive) | GI50 (HL-60): 5.06 µM (inactive) | GI50 (SN12C): 35.1 µM (inactive) | GI50 (NCI-H23): 29.6 µM (inactive) | GI50 (KM12): > 100 µM (inactive) | GI50 (M14): 58.6 µM (inactive) | GI50 (PC-3): > 100 µM (inactive) | GI50 (MDA-MB-435): > 100 µM (inactive) | GI50 (SF-268): 24.4 µM (inactive) | GI50 (MCF7): 18.6 µM (inactive) | GI50 (T47D): 43.6 µM (inactive) | GI50 (SK-OV-3): > 27.2 µM (inactive) | GI50 (Malme-3M): > 57.3 µM (inactive) | GI50 (HCT-116): 57 µM (inactive) | GI50 (HOP-62): 43.2 µM (inactive)

Cc1ccc(-c2cc(-c3ccc(Cl)cc3)nc(/N=C3\C(=O)N(CN4CCOCC4)c4ccccc43)n2)cc1
GI50 (HCT-15): 26.6 µM | GI50 (MDA-N): 18.5 µM (inactive) | GI50 (SNB-19): 15.1 µM (inactive) | GI50 (K562): 23.1 µM (inactive) | GI50 (IGROV-1): 15.2 µM (inactive) | GI50 (CAKI-1): 32 µM (inactive) | GI50 (HL-60): 9.02 µM (inactive) | GI50 (SN12C): 30.8 µM (inactive) | GI50 (NCI-H23): 18.8 µM (inactive) | GI50 (KM12): 22.4 µM (inactive) | GI50 (M14): 26.2 µM (inactive) | GI50 (PC-3): 26.5 µM (inactive) | GI50 (MDA-MB-435): 19 µM (inactive) | GI50 (SF-268): 30.4 µM (inactive) | GI50 (MCF7): 19 µM (inactive) | GI50 (T47D): 32.9 µM (inactive) | GI50 (SK-OV-3): 31.1 µM (inactive) | GI50 (Malme-3M): 22.9 µM (inactive) | GI50 (HCT-116): 24.9 µM (inactive) | GI50 (HOP-62): 28 µM (inactive)

Oc1nc(-c2ccc3ccccc3c2)nc2ccccc12
GI50 (HCT-15): > 100 µM | GI50 (MDA-N): 49.2 µM (inactive) | GI50 (SNB-19): 19.1 µM (inactive) | GI50 (K562): > 100 µM (inactive) | GI50 (IGROV-1): 19.8 µM (inactive) | GI50 (CAKI-1): 75 µM (inactive) | GI50 (HL-60): > 100 µM (inactive) | GI50 (SN12C): 54.1 µM (inactive) | GI50 (NCI-H23): 58.5 µM (inactive) | GI50 (KM12): > 100 µM (inactive) | GI50 (M14): 33.5 µM (inactive) | GI50 (PC-3): > 100 µM (inactive) | GI50 (MDA-MB-435): 61.9 µM (inactive) | GI50 (SF-268): 26.3 µM (inactive) | GI50 (MCF7): 64.4 µM (inactive) | GI50 (T47D): 64 µM (inactive) | GI50 (SK-OV-3): 30.3 µM (inactive) | GI50 (Malme-3M): 33.6 µM (inactive) | GI50 (HCT-116): 18.7 µM (inactive) | GI50 (HOP-62): 14.4 µM (inactive)

Nc1ncnc2c1nc(Cl)n2[C@@H]1O[C@@H]2COP(=O)(O)O[C@H]2[C@H]1O [TOCLADESINE]
GI50 (HCT-15): 6.7 µM | GI50 (MDA-N): 10.9 µM (inactive) | GI50 (SNB-19): 122 µM (inactive) | GI50 (K562): 2.82 µM (inactive) | GI50 (IGROV-1): 24.5 µM (inactive) | GI50 (CAKI-1): 3.61 µM (inactive) | GI50 (HL-60): 3.61 µM (inactive) | GI50 (SN12C): 12.6 µM (inactive) | GI50 (NCI-H23): 16.5 µM (inactive) | GI50 (KM12): 75.5 µM (inactive) | GI50 (M14): 8.02 µM (inactive) | GI50 (PC-3): 8.3 µM (inactive) | GI50 (MDA-MB-435): 5.41 µM (inactive) | GI50 (SF-268): 32 µM (inactive) | GI50 (MCF7): 8.11 µM (inactive) | GI50 (T47D): 14.7 µM (inactive) | GI50 (SK-OV-3): 10.6 µM (inactive) | GI50 (Malme-3M): 152 µM (inactive) | GI50 (HCT-116): 3.01 µM (inactive) | GI50 (HOP-62): 19.5 µM (inactive)

C=C1C(=O)OC2C1C(OC(=O)/C(C)=C/C)CC(O)(CCl)C1C(O)C=C(C)C21O (stereo not given)
GI50 (HCT-15): 3.72 µM | GI50 (MDA-N): 14.9 µM (inactive) | GI50 (SNB-19): > 43.8 µM (inactive) | GI50 (K562): 3.78 µM (inactive) | GI50 (IGROV-1): 14.9 µM (inactive) | GI50 (CAKI-1): 4.14 µM (inactive) | GI50 (HL-60): 2.28 µM (inactive) | GI50 (SN12C): 14.4 µM (inactive) | GI50 (NCI-H23): 13.8 µM (inactive) | GI50 (KM12): 20.5 µM (inactive) | GI50 (M14): 11.4 µM (inactive) | GI50 (PC-3): 21.7 µM (inactive) | GI50 (MDA-MB-435): 23 µM (inactive) | GI50 (SF-268): 22.9 µM (inactive) | GI50 (MCF7): 4.52 µM (inactive) | GI50 (T47D): 11.9 µM (inactive) | GI50 (SK-OV-3): 47.9 µM (inactive) | GI50 (Malme-3M): 2.22 µM (inactive) | GI50 (HCT-116): 6.28 µM (inactive) | GI50 (HOP-62): > 46.1 µM (inactive)

NC(=O)NC(=O)C1CCCCC1C(=O)O (stereo not given)
GI50 (HCT-15): > 100 µM | GI50 (MDA-N): > 100 µM (inactive) | GI50 (SNB-19): > 100 µM (inactive) | GI50 (K562): 5.11 µM (inactive) | GI50 (IGROV-1): > 100 µM (inactive) | GI50 (CAKI-1): > 100 µM (inactive) | GI50 (HL-60): > 100 µM (inactive) | GI50 (SN12C): > 100 µM (inactive) | GI50 (NCI-H23): > 100 µM (inactive) | GI50 (KM12): > 100 µM (inactive) | GI50 (M14): > 100 µM (inactive) | GI50 (PC-3): > 100 µM (inactive) | GI50 (MDA-MB-435): > 100 µM (inactive) | GI50 (SF-268): > 100 µM (inactive) | GI50 (MCF7): > 100 µM (inactive) | GI50 (T47D): > 100 µM (inactive) | GI50 (SK-OV-3): > 100 µM (inactive) | GI50 (Malme-3M): > 100 µM (inactive) | GI50 (HCT-116): > 100 µM (inactive) | GI50 (HOP-62): > 100 µM (inactive)

C/C(=C\[Si](C)(C)c1ccco1)C(C)(O)[C@H](C)O (stereo not given in full)
GI50 (HCT-15): 31.6 µM | GI50 (MDA-N): 54.6 µM (inactive) | GI50 (SNB-19): > 100 µM (inactive) | GI50 (K562): 32.3 µM (inactive) | GI50 (IGROV-1): > 100 µM (inactive) | GI50 (CAKI-1): > 100 µM (inactive) | GI50 (HL-60): 26.9 µM (inactive) | GI50 (SN12C): 32.7 µM (inactive) | GI50 (NCI-H23): 30.2 µM (inactive) | GI50 (KM12): 40.6 µM (inactive) | GI50 (M14): > 100 µM (inactive) | GI50 (PC-3): 38.9 µM (inactive) | GI50 (MDA-MB-435): 45.3 µM (inactive) | GI50 (SF-268): 90.2 µM (inactive) | GI50 (MCF7): 32.9 µM (inactive) | GI50 (T47D): 16.4 µM (inactive) | GI50 (SK-OV-3): > 100 µM (inactive) | GI50 (Malme-3M): 52.8 µM (inactive) | GI50 (HCT-116): 41.6 µM (inactive) | GI50 (HOP-62): > 100 µM (inactive)
